In article PMC11304990, “Identification of mitochondrial ATP synthase as the cellular target of Ru-polypyridyl-β-carboline complexes by affinity-based protein profiling” (National Science Review, 2024):

Experiments:
mitochondria = assay: Subcellular Ru content by ICP-MS; format: cell-based; conditions: 20 μM, 12 h
Procedure: Figure 1. Validation of ATP5F1 as the molecular target of Ru5. (A) Proteins pulled down by streptavidin from A549 cells treated with Ru5a followed by PAL. The cells were treated with Ru5a (50 μM) for 12 h and irradiated with UV light for 20 min. (B) The top five peptides enriched by Ru5a-mediated PAL were identified with the assistance of SILAC-based chemoproteomic studies. H1F0: H1 histone family member 0; HIST4H4: histone cluster 4 H4; HIST3H2BB: histone cluster 3 H2B family member b; ATP5F1E: ATP synthase F1 subunit epsilon; HIST1H2AJ: histone cluster 1 H2A family member J. (C) Pull-down western blotting analysis of ATPase in A549 cells treated with Ru5a. (D) Cellular Ru content in cells treated with Ru5/Ru5a (20 μM, 12 h) measured by ICP-MS. (E) Impact of Ru5/Ru5a (10 μM) on the thermal stability of ATP5F1 measured by CETSA. (F) Impact on the anticancer activities of Ru5/Ru5a against wild type and ATPase knocking down (by siRNA) A549 cells. The relative cellular viability was calculated using the cells without drug treatment in each group as the control group. (G) Inhibition of Ru5/Ru5a on the enzymatic activity of ATPase. (-)-blebbistatin was used as the positive control. (H) Molecular docking of Ru5 with ATPase (PDB: 3ZIA). The red dashes indicate the hydrogen bonds formed between Ru5 and the amino acid residues (SER38 and GLN39). […]

A549 cells = assay: Wound healing and transwell migration assays; format: cell-based, human; conditions: 5 μM
Procedure: Figure 4. Ru5 induces mitophagy and ferroptosis and inhibits EMT in vitro. (A) TEM images of A549 cells treated with vehicle (1% DMSO) or Ru5 (10 μM, 12 h). Red rectangles represent the region enlarged. Scale bar: 5 μm and 500 nm (enlarged). (B) The morphological examination of mitochondria in A549 cells treated with Ru5 (10 μM) for the indicated time intervals. MTG: λex = 514 nm; λem = 540 ± 20 nm. LTDR: λex = 633 nm; λem = 700 ± 20 nm. Scale bar: 20 μm. (C) Western blotting analysis showing the impact of Ru5 (24 h) on the expression of proteins related to mitochondrial dysfunction and ferroptosis. (D and E) The impact of different inhibitors on antiproliferative activity of Ru5 (24 h). (F) RT-qPCR analysis of EMT-related genes in A549 cells after Ru5 (10 μM, 12 h) treatment. (G) The impact of Ru5 (5 μM) on the migration of A549 cells was measured by a wound healing assay. Scale bar: 100 μm. (H) Quantitative analysis of the impact of Ru5 on wound healing. (I) Selective images of the impact of Ru5 (5 μM, 48 h) on the migration of A549 cells detected by transwell assay. Scale bar: 100 μm. […] Firstly, real-time quantitative polymerase chain reaction (RT-qPCR) experiments (Fig. 4F) confirm that Ru5 can down-regulate genes including CDH1 (cadherin 1), FN1 (fibronectin 1) and MMP2 (matrix metallopeptidase 2).

SMILES: F[P-](F)(F)(F)(F)F.F[P-](F)(F)(F)(F)F.[Ru+2].c1ccc2c(c1)[nH]c1c(-c3ncc[nH]3)nccc12.c1cnc2c(c1)ccc1cccnc12.c1cnc2c(c1)ccc1cccnc12 [Ru5]
- Subcellular location (cellular Ru content) (mitochondria): mainly located in mitochondria
- Migration rates of A549 cells (A549 cells): markedly decrease
